Results on nine compounds are retold here after publication PMC8471592, “Characterization of Conserved and Promiscuous Human Rhinovirus CD4 T Cell Epitopes” (Cells, 2021).

One assay has as its target HLA-DRB1*04:04 (Homo sapiens, UniProt P01903+P01911, A100R/A169T/F76Y/I96L/K127E/L162R/M171V/N62H/P40V/Q125Y/R42H/S133A/S149N/S66Y/V209L/W38E). The experiment in a line: Competitive inhibition HLA II binding assay. The conditions noted are these: competition with radiolabeled probe peptide, purified HLA II, 0.3 nM–30 µM, 2-day incubation; mean of three or more independent assays.

The next assay concerns the target HLA-DRB1*09:01 (Homo sapiens, UniProt P01903+P01911, A100R/A103E/D57H/D86V/F55Y/F60I/F76Y/I96F/K127E/L162R/M171V/P40D/Q125H/Q99R/R33Q/R42F/S133A/S66N/T210M/V115G/W38K/Y107V/Y59G/Y89S). The experiment in a line: Competitive inhibition HLA II binding assay. Conditions: competition with radiolabeled probe peptide, purified HLA II, 0.3 nM–30 µM, 2-day incubation; mean of three or more independent assays.

The next assay deals with HLA-DRB1*08:02 (Homo sapiens, UniProt P01903+P01911, A100R/A103L/A169T/F76Y/H45Y/I96F/K41T/L162R/M171V/P40S/Q125H/Q178H/Q39Y/Q99D/R218S/R42G/S66Y/V115G/W38E). The experiment in a line: Competitive inhibition HLA II binding assay. Conditions: competition with radiolabeled probe peptide, purified HLA II, 0.3 nM–30 µM, 2-day incubation; mean of three or more independent assays.

The target of the next assay is HLA-DRB1*11:04 (Homo sapiens, UniProt P01903+P01911, A100R/A169T/A87E/I96F/K41T/L162R/M171V/P40S/Q125H/Q178H/Q39Y/Q99D/R42S/S66Y/T262R/W38E). The experiment in a line: Competitive inhibition HLA II binding assay. The conditions noted are these: competition with radiolabeled probe peptide, purified HLA II, 0.3 nM–30 µM, 2-day incubation; mean of three or more independent assays.

For a further assay, the target named is HLA-DRB1*13:02 (Homo sapiens, UniProt P01903+P01911, A100E/A169T/K41T/L162R/M171V/P40S/Q125H/Q178H/Q39Y/Q99D/R42S/S66N/T262R/V115G/W38E/Y61H). Description: Competitive inhibition HLA II binding assay. Conditions: competition with radiolabeled probe peptide, purified HLA II, 0.3 nM–30 µM, 2-day incubation; mean of three or more independent assays.
The next assay addresses HLA-DRB1*07:01 (Homo sapiens, UniProt P01903+P01911, A100R/A102G/A103Q/D57E/D86V/E43K/F76Y/K127E/L162R/M171V/P40G/Q125H/Q99D/R33Q/R42Y/R54Q/S133A/S66F/T210M/V115G/Y107V/Y59L/Y89S). The experiment in a line: Competitive inhibition HLA II binding assay. Conditions: competition with radiolabeled probe peptide, purified HLA II, 0.3 nM–30 µM, 2-day incubation; mean of three or more independent assays.

The target of another assay is HLA-DRB1*11:01 (Homo sapiens, UniProt P01903+P01911, A100R/A169T/A87E/I96F/K41T/L162R/M171V/P40S/Q125H/Q178H/Q39Y/Q99D/R42S/S66Y/T262R/V115G/W38E). The experiment in a line: Competitive inhibition HLA II binding assay. Conditions: competition with radiolabeled probe peptide, purified HLA II, 0.3 nM–30 µM, 2-day incubation; mean of three or more independent assays.
A further assay deals with HLA-DRB1*03:01 (Homo sapiens, UniProt P01903+P01911, A100K/A102G/A103R/A169T/F55Y/I96L/K41T/L162R/M171V/P40S/Q125H/Q178H/Q39Y/R42S/S66N/T106N/T262R/W38E/Y61H). The experiment in a line: Competitive inhibition HLA II binding assay. The conditions noted are these: competition with radiolabeled probe peptide, purified HLA II, 0.3 nM–30 µM, 2-day incubation; mean of three or more independent assays.

Assay [1] deals with PBMCs from three HLA II-typed donors. Description: IFNγ-ELISPOT assay. It counts as cell-based, human. Conditions: 10 μM peptide, 1 × 10^5 PBMCs, 24 h, triplicate; positive if >60 SFC/10^6 PBMCs after background subtraction. The method, then: Peptide-specific IFNγ production by PBMCs from HLA II-typed donors was detected by standard IFNγ ELISPOT assays. Briefly, 96-well PVDF plates (Millipore, Darmstadt, Germany) were coated with anti-IFNγ (1-D1K mAb, Mabtech, Stockholm, Sweden) and 1 × 10^5 PBMCs were pleated with RPMI 1640 (Gibco, Waltham, MA, USA), supplemented with 10% of fetal bovine serum (Gibco, Waltham, MA, USA), 100 µg/mL streptomycin, 100 U/mL penicillin, and 2 mM L-glutamine (Lonza, Basel, Switzerland). Individual RV peptides were added at 10 μM. Plates were incubated at 37 °C and 5% CO2 and, after 24 h, were processed according to the manufacturer’s instructions. PBMCs incubated with 10 μg/mL phytohemagglutinin (PHA) or without any stimuli were used as positive and background controls, respectively. The assay was run in triplicate for each individual peptide. The number of IFNγ-secreting cells (spot forming cells (SFCs)) was determined with an ELISPOT reader (ImmunoSpot 5.0, CTL Analyzers, Shaker Heights, OH, USA).

Ends that are not written are not given here.

With `CC[C@H](C)[C@H](NC(=O)CNC(=O)[C@H](CCCCN)NC(=O)[C@H](CCC(=O)O)NC(=O)[C@H](CC(C)C)NC(=O)[C@@H](NC(=O)[C@H](CC(=O)O)NC(=O)[C@H](CCCCN)NC(=O)[C@@H](N)C(C)C)C(C)C)C(=O)N1CCC[C@H]1C(=O)N[C@H](C(=O)N[C@@H](CC(C)C)C(=O)N[C@@H](CCC(N)=O)C(=O)N[C@@H](CO)C(=O)N1CCC[C@H]1C(=O)N[C@H](C(=O)N[C@H](C(=O)N[C@@H](CCC(=O)O)C(=O)O)C(C)C)[C@@H](C)O)[C@@H](C)O` [RVA57–74], the results for the IC50 on HLA-DRB1*04:04 and at HLA-DRB1*09:01 were 4100 nM and 9540 nM, respectively.
On to `CC[C@H](C)[C@H](NC(=O)[C@@H](NC(=O)[C@H](CO)NC(=O)[C@@H](N)CC(=O)O)[C@@H](C)O)C(=O)N[C@H](C(=O)N[C@@H](CO)C(=O)N[C@@H](CCC(N)=O)C(=O)N[C@@H](CC(=O)O)C(=O)N[C@H](C(=O)N[C@@H](C)C(=O)N[C@@H](CC(N)=O)C(=O)N[C@@H](C)C(=O)N[C@H](C(=O)N[C@H](C(=O)NCC(=O)N[C@@H](Cc1ccc(O)cc1)C(=O)NCC(=O)N[C@H](C(=O)O)C(C)C)C(C)C)C(C)C)C(C)C)[C@@H](C)O` [RVA89–106], for which the IC50 – broadly, the concentration that gives 50% inhibition – on HLA-DRB1*08:02 is 5170 nM; at HLA-DRB1*04:04, 19 nM; on HLA-DRB1*11:04 it was 5820 nM; on HLA-DRB1*13:02, 6650 nM; on HLA-DRB1*09:01 it was 1200 nM; at HLA-DRB1*07:01 it was 865 nM.
`CC(C)C[C@H](NC(=O)[C@H](Cc1ccc(O)cc1)NC(=O)[C@H](Cc1c[nH]cn1)NC(=O)[C@@H]1CCCN1C(=O)[C@H](Cc1c[nH]c2ccccc12)NC(=O)[C@@H](NC(=O)CNC(=O)[C@H](Cc1ccc(O)cc1)NC(=O)CNC(=O)[C@@H](NC(=O)[C@@H](NC(=O)[C@H](C)NC(=O)[C@H](CC(N)=O)NC(=O)[C@H](C)NC(=O)[C@@H](N)C(C)C)C(C)C)C(C)C)C(C)C)C(=O)N[C@H](C(=O)N1CCC[C@H]1C(=O)N[C@@H](CCC(=O)O)C(=O)O)[C@@H](C)O` [RVA97–114]: the concentration for half-maximal inhibition (IC50) came out at 453 nM on HLA-DRB1*08:02; 5580 nM on HLA-DRB1*04:04; 19700 nM on HLA-DRB1*11:04; 11600 nM at HLA-DRB1*13:02; 11500 nM at HLA-DRB1*09:01; 1100 nM at HLA-DRB1*11:01. This compound showed an IC50 at HLA-DRB1*07:01 of 1300 nM.
Take DLPYVTYLKDELR [RVC1835–1847]: the IC50 is 2600 nM at HLA-DRB1*08:02 and 773 nM at HLA-DRB1*04:04.
In the case of GLEPLDLNTSAGFPYV [RVC1791–1806], the IC50 turned out to be 1100 nM at HLA-DRB1*04:04, 62 nM at HLA-DRB1*13:02, 8400 nM on HLA-DRB1*03:01 and 1200 nM at HLA-DRB1*07:01.
On to INLRTNNSSTIVVPYIN [RVC258–274], for which the IC50 came to 3430 nM on HLA-DRB1*04:04, 40 nM on HLA-DRB1*13:02, 840 nM at HLA-DRB1*09:01 and 411 nM on HLA-DRB1*07:01.
With KEKFRDIRRFIP [RVC1582–1592], the IC50 was determined as 44 nM on HLA-DRB1*08:02; 8680 nM at HLA-DRB1*04:04; 101 nM on HLA-DRB1*11:04; 2730 nM at HLA-DRB1*09:01; 33 nM at HLA-DRB1*11:01; 13000 nM on HLA-DRB1*07:01.
With “YEIQESEYYPKHIQY [RVC945–959, RV C 2A peptide, position 945–959]”, in assay [1], the “IFNγ recall response in ELISPOT” value was “able to stimulate IFNγ production by T cells in at least one donor”.
Still for that read-out and setting: for “YGDDVIFSY [RVA2029–2037, reference compound]” the value was “not immunogenic in IFNγ ELISPOT assays”.
